Measured values published in paper PMC2763920 (Electrophoresis, 2009).

What was measured:
[1] = system: GST-Fyn-SH3-SH2; test: NECEEM, GST-Fyn-SH3-SH2:Fluor-Fyn peptide complex; assay type: binding; settings: 2 μM GST-Fyn-SH3-SH2, 100 nM Fluor-Fyn peptide, pH 8.5
[2] = system: GST-Fyn-SH3-SH2; test: High-speed CE competition / binding, GST-Fyn-SH3-SH2 with Fluor-Fyn peptide
[3] = system: Fyn-SH3-SH2; settings: 100 V/cm for Ld of 30 cm; 100 and 200 V/cm for Ld of 40 cm; t1/2 not measured

Substance: fluorescein-EEEEPQpYEEIPIYL [Fluor-Fyn peptide]
- complexes observed (NECEEM) [1]: two incompletely resolved peaks
- number of complexes detected (high-speed CE), GST-Fyn-SH2-SH3 ([2]; 500 nM protein, 200 nM Fluor-Fyn peptide): two distinct complexes were detected
- complex 1-to-complex 2 ratio with increasing peptide concentration ([2]; Fluor-Fyn peptide 50 nM to 700 nM, protein 500 nM): decreases with increasing peptide concentration
- protein concentration dependency of complex formation: low range ([2]; GST-Fyn-SH3-SH2 0.1 μM to 0.5 μM, Fluor-Fyn peptide 200 nM): complex 2 increases
- complex expected to dissociate over the course of separation ([2]; for t1/2 of 22 s and separation time of 3.8 s): 2%
- dissociation of the complex at low electric field (NECEEM) [3]: complete dissociation of the complex
